pIC50: −log10 of the molar value.
Assays:
Histone deacetylase 8 = target: T1, Histone deacetylase 8 (Homo sapiens, UniProt Q9BY41); assay: In Vitro Enzyme Inhibition Assay - HDAC
T1 sequence (Q9BY41 whole entry): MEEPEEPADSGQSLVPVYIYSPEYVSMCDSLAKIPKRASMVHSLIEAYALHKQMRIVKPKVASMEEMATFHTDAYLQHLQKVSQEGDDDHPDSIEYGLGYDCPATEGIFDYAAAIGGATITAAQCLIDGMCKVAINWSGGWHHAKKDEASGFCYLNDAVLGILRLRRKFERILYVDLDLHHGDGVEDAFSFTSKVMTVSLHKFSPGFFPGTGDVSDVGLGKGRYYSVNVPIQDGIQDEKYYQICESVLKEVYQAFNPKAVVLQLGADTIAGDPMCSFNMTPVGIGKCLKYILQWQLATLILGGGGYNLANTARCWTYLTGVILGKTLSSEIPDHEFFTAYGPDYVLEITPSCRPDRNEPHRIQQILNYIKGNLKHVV
Procedure: (§1) The effect of the compound on the enzymatic activity of pan-HDAC and two isoforms (HDAC1 and HDAC8) was examined using the HDAC-Glo I/II Assay and Screening System assay to assess the level of inhibition of HDAC protease activity and selectivity in each isoform. The proteins and detection reagents were from the HDAC-Glo™ I/II Assay and Screening System (Promega). A 1 mM stock solution of the compound was prepared in DMSO and diluted in a 5-fold gradient to create a series of 8 concentrations, and a specific volume of the highest concentration was diluted 25 times with HDAC Buffer to obtain 4× working solution of the compound. […] The 384-well plate was then read on a multifunctional microplate reader, with the Luminescence channel selected to record Luminescence values (RLU).

Histone deacetylase 1/8 = Histone deacetylase 1/8 (Homo sapiens, UniProt Q13547+Q9BY41); assay: In Vitro Enzyme Inhibition Assay - HDAC
Sequence of Histone deacetylase 1/8 (Q13547 whole entry, one chain of several): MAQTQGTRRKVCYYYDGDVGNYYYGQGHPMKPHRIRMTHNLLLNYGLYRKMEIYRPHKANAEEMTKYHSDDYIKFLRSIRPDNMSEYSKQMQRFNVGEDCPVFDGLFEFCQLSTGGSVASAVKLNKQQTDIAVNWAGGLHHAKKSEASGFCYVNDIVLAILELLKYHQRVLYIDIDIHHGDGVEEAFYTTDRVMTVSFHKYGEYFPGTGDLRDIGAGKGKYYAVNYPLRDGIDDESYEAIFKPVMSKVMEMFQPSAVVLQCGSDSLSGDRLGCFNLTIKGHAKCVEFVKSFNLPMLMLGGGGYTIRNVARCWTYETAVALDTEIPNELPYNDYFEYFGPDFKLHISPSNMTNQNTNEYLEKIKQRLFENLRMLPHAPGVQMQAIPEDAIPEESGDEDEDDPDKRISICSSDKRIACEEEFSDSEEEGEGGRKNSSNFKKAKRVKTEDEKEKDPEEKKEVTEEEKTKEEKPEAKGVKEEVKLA
Procedure: as §1

Histone deacetylase 1 = Histone deacetylase 1 (Homo sapiens, UniProt Q13547); assay: In Vitro Enzyme Inhibition Assay - HDAC
Sequence of Histone deacetylase 1 (Q13547 whole entry): as the sequence (Q13547 whole entry, one chain of several) above
Procedure: as §1

[1] = target: Lysine-specific histone demethylase 1A (Homo sapiens, UniProt O60341); assay: In Vitro Enzyme Inhibition Assay - LSD1
Procedure: Initially, a master solution of 90 μM test compound (dissolved in DMSO) was prepared and sequentially diluted with DMSO in a 5-fold concentration gradient to yield a total of 9 concentrations of the compound working solution 1 (90×). Subsequently these 9 concentrations of working solution 1 were sequentially diluted by a 30-fold concentration gradient, i.e., 2 μL of working solution 1 was aspirated and added to 58 μL of Buffer, mixed on a vortex mixer with sufficient shaking to yield 9 concentrations of the screening test compound working solution 2 (3×). […] The mixture was incubated at room temperature for 15 minutes. […] Afterward, 2 μL of a termination solution (containing 5.4 mM 2-PCPA) was added to each well, mixed evenly, and incubated for another 15 minutes. Finally 4 μL of a pre-mixed antibody solution of Eu-anti H3K4 (PerkinElmer, TRF0404-D) and allophycocyanin (Prozyme, PJ27S) (1:1) was added to each well, mixed evenly, and incubated for 60 minutes.

Compound	pIC50 (Histone deacetylase 8)	pIC50 (Histone deacetylase 1/8)	pIC50 (Histone deacetylase 1)	pIC50 [1]
Cc1ccc(-c2cnc(N3CCC(NCc4cnc(/C=C/C(=O)NO)nc4)CC3)c(C#N)c2-c2ccc(C#N)c(F)c2)cc1O [US20250304549, Example 148]	7.23	8.61	9.37	8.98
COc1ccc(-c2cnc(N3CCC(NCc4ccc(/C=C/C(=O)NO)cc4)CC3)c(F)c2-c2ccc(C#N)c(F)c2)cc1O [US20250304549, Example 76]	6.80	8.80	–	–
N#Cc1ccc(-c2c(-c3ccc(/C=C/C(=O)NO)c(O)c3)cnc(N3CCC(NCc4ccc(/C=C/C(=O)NO)cc4)CC3)c2C#N)cc1F [US20250304549, Example 90]	7.20	7.71	7.97	8.10
CNC1CCN(C2N=CC(c3ccc(OCCCCCCC(=O)NO)c(O)c3)=C(c3ccc(C#N)c(F)c3)C2C#N)CC1 (stereo not given) [US20250304549, Example 24]	6.93	–	8.08	9.39
COc1ccc(C2=C(C3C=NC(C#N)=CC3)C(C#N)C(N3CCC(NCc4ccc(/C=C/C(=O)NO)cc4)CC3)C=C2)cc1O (stereo not given) [US20250304549, Example 267]	–	–	–	8.13
COC1=C(OCCCCCCC(=O)NO)CC(C2=C(c3ccc(C#N)c(F)c3)N=C(N3CCC(N)CC3)N3C=CNC23)C=C1 (stereo not given) [US20250304549, Example 20]	6.35	–	6.51	7.77
O=C(/C=C/c1ccc(CNC(=O)c2cc(CN[C@@H]3C[C@H]3c3ccc(F)cc3)nc(-c3ccc(-n4cccn4)cc3)n2)cc1)NO [US20250304549, Example 232]	–	6.94	–	–
COc1ccc(-c2cnc(N3CCC(NCc4ccc(/C=C/CC(=O)NO)cc4)CC3)c(C#N)c2-c2ccc(C#N)c(F)c2)cc1O [US20250304549, Example 169]	5.85	7.29	–	9.38
COc1ccc(-c2cnc(N3CCCC(NCc4ccc(/C=C/C(=O)NO)cc4)CC3)c(C#N)c2-c2ccc(C#N)c(F)c2)cc1O (stereo not given) [US20250304549, Example 149]	7.23	8.98	9.30	9.27

Source: BindingDB's records for patent US20250304549 (Sichuan Huiyu Pharmaceutical, 2025)
